SMILES strings stand for the structures.

In general, IC50 refers to the concentration needed to halve the response being measured.

Assay [1] deals with T1, HDAC1 (Homo sapiens, UniProt Q13547).
T1 construct: purchased Enzolifesciences BML-AK511
The assay is described as follows: HDAC1 enzyme activity inhibition (HDAC1 fluorimetric drug discovery assay kit). Type of assay: biochemical. To be noted: 37° C., 60 minutes; tested at 100, 1000 and 10000 nM. Here is the method:
(§1) 1. Experiment on Activities in HDAC Enzymes (HDAC1 and HDAC6)
(§2) Assays were performed using a HDAC1 fluorimetric drug discovery assay kit (Enzolifesciences: BML-AK511) and a HDAC6 human recombinant (Calbiochem: 382180). The assay mixture of the kit was treated with each of the compounds of the Examples at concentrations 100, 1000 and 10000 nM for HDAC1 assay and 0.1, 1, 10, 100 and 1000 nM for HDAC6 assay. The treated assay mixture was allowed to react at 37° C. for 60 minutes, and then was treated with a developer and allowed to stand at 37° C. for 30 minutes, followed by quantification of the fluorescence. In Table 17, lower HDAC6 values (μM) indicate higher HDAC6 inhibitory activities of the compounds. Also, because selective HDAC6 inhibitors should not inhibit HDAC1 (μM), higher HDAC1 values indicate higher HDAC6 selectivity of the compounds.

For assay [2], the target named is T2, HDAC6 human recombinant (Homo sapiens, UniProt Q9UBN7).
T2 construct: purchased Calbiochem 382180
T2 sequence (Q9UBN7 1-1215): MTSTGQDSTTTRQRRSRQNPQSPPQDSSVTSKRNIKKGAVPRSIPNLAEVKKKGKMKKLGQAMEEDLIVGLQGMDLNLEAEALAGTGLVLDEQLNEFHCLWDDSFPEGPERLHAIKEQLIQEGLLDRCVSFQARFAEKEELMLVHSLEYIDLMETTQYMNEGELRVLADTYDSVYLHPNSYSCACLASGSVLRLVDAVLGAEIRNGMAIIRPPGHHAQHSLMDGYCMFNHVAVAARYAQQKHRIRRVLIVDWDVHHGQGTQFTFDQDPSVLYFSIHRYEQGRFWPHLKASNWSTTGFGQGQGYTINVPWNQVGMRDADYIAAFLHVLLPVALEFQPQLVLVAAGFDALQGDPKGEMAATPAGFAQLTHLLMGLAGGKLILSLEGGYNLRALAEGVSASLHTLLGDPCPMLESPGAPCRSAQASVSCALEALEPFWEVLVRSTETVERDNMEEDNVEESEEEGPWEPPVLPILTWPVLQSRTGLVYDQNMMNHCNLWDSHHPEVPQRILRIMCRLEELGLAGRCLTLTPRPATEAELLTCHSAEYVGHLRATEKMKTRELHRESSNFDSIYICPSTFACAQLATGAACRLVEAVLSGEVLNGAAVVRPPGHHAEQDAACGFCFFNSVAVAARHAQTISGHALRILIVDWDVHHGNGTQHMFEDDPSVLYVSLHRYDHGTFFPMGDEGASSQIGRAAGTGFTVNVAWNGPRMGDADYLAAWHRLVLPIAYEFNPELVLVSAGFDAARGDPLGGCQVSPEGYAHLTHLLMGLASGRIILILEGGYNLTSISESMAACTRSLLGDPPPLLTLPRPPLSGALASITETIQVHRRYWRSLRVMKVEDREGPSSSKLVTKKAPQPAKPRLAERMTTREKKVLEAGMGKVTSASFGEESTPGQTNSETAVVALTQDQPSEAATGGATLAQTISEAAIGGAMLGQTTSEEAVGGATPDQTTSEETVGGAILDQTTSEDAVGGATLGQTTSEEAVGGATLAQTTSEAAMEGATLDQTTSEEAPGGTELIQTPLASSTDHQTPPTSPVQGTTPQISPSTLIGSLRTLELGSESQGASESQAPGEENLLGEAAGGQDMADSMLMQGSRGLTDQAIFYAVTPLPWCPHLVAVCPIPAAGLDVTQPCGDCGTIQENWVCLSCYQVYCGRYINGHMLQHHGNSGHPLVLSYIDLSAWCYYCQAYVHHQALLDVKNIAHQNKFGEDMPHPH
The assay is described as follows: HDAC6 enzyme activity inhibition (fluorimetric, in vitro). Type of assay: biochemical. To be noted: 37° C., 60 minutes; tested at 0.1, 1, 10, 100 and 1000 nM. Here is the method:
as §1, §2

T1 sequence (Q13547 whole entry): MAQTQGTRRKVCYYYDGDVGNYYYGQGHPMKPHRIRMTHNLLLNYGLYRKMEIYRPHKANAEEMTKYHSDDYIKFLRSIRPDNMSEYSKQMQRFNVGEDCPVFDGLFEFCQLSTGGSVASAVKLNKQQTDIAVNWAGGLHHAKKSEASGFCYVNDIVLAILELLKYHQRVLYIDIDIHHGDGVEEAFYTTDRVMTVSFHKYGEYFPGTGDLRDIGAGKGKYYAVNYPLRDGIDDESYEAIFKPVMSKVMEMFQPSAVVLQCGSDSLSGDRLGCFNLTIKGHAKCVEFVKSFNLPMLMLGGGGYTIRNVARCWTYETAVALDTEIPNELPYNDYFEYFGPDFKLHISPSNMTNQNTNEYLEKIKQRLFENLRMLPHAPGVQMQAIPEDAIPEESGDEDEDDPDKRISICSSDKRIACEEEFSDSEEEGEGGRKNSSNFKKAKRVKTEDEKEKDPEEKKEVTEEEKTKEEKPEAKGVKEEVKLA

Turning to `COC[C@@H]1CCCN1CCn1c(C)c(Cc2ccc(C(=O)NO)cc2)c2ccccc21` [Compound 200, (S)—N-hydroxy-4-((1-(2-(2-(methoxymethyl)pyrrolidin-1-yl)ethyl)-2-methyl-1H-indol-3-yl)methyl)benzamide], the half-maximal inhibitory concentration (IC50) was 2610 nM in assay [1] and 8 nM in assay [2].
For `Cc1nccn1CCn1c(C)c(Cc2ccc(C(=O)NO)cc2)c2ccccc21` [Compound 201, N-hydroxy-4-((2-methyl-1-(2-(2-methyl-1H-imadazol-1-yl)ethyl)-1H-indol-3-yl)methyl)benzamide], the concentration for half-maximal inhibition (IC50) in assay [1] came out at 2470 nM; in assay [2] it was 9 nM.
Take `Cc1c(Cc2ccc(C(=O)NO)cc2)c2ccccc2n1CCN1CCC(F)CC1` [Compound 553, 4-((1-(2-(4-Fluoropiperidin-1-yl)ethyl)-2-methyl-1H-indol-3-yl)methyl)-N-hydroxybenzamide]: the figures for the half-inhibitory concentration (IC50) in assay [1] and in assay [2] were 8100 nM and 39 nM, respectively.
`CCCCN1CCC(Cn2c(C)c(Cc3ccc(C(=O)NO)cc3)c3ccccc32)CC1` [Compound 558, 4-((1-((1-Butylpiperidin-4-yl)methyl)-2-methyl-1H-indol-3-yl)methyl)-N-hydroxybenzamide]: the figures for the IC50 in assay [1] and in assay [2] were 6110 nM and 80 nM, respectively.
Regarding `Cc1c(Cc2ccc(C(=O)NO)cc2)c2ccccc2n1CCN1CCN(CC(C)(C)F)CC1` [Compound 564, 4-((1-(2-(4-(2-Fluoro-2-methylpropyl)piperazin-1-yl)ethyl)-2-methyl-1H-indol-3-yl)methyl)-N-hydroxybenzamide], the IC50 amounted to 370 nM in assay [1] and 25 nM in assay [2].
With `CCC(F)(CC)CN1CCC(CCn2c(C)c(Cc3ccc(C(=O)NO)cc3)c3ccccc32)CC1` [Compound 581, 4-((1-(2-(1-(2-Ethyl-2-fluorobutyl)piperidin-4-yl)ethyl)-2-methyl-1H-indol-3-yl)methyl)-N-hydroxybenzamide], the IC50 is above 10000 nM in assay [1] and 870 nM in assay [2].
Take `Cc1c(Cc2ccc(C(=O)NO)cc2)c2cc(F)ccc2n1CC1CCN(CC(C)(C)O)CC1` [Compound 582, 4-((5-Fluoro-1-((1-(2-hydroxy-2-methylpropyl)piperidin-4-yl)methyl)-2-methyl-1H-indol-3-yl)methyl)-N-hydroxybenzamide]: the half-inhibitory concentration (IC50) worked out at 2460 nM in assay [1] and 27 nM in assay [2].
In the same order, the values of `Cc1c(Cc2ccc(C(=O)NO)cc2)c2ccccc2n1CCN1CCCCC1` [Compound 585] are 7750 nM and 84 nM.
As to `Cc1c(Cc2ccc(C(=O)NO)cc2)c2ccccc2n1CCN1CCC(CO)C1` (centres unmarked) [Compound 586, N-hydroxy-4-((1-(2-(3-(hydroxymethyl)pyrrolidin-1-yl)ethyl)-2-methyl-1H-indol-3-yl)methyl)benzamide], the IC50 in assay [1] turned out to be 2810 nM; in assay [2] it was 16 nM.
For `Cc1c(Cc2ccc(C(=O)NO)cc2)c2cc(F)ccc2n1CCN1CC[C@H](O)C1` [Compound 587, (S)-4-((5-fluoro-1-(2-(3-hydroxypyrrolidin-1-yl)ethyl)-2-methyl-1H-indol-3-yl)methyl)-N-hydroxybenzamide], the figures for the IC50 in assay [1] and in assay [2] were 2810 nM and 30 nM, respectively.
In the case of `Cc1c(Cc2ccc(C(=O)NO)cc2)c2cc(F)ccc2n1CC1CCN(CC(C)(C)F)CC1` [Compound 588, 4-((5-Fluoro-1-((1-(2-fluoro-2-methylpropyl)piperidin-4-yl)methyl)-2-methyl-1H-indol-3-yl)methyl)-N-hydroxybenzamide], the results for the half-maximal inhibitory concentration (IC50) in assay [1] and in assay [2] were 6730 nM and 378 nM, respectively.
Turning to `Cc1c(Cc2ccc(C(=O)NO)cc2)c2cc(F)ccc2n1CCN1CC[C@H](F)C1` [Compound 589, (S)-4-((5-fluoro-1-(2-(3-fluoropyrrolidin-1-yl)ethyl)-2-methyl-1H-indol-3-yl)methyl)-N-hydroxybenzamide], the IC50 in assay [1] was determined as 4640 nM; in assay [2] it was 63 nM.
Consider `Cc1c(Cc2ccc(C(=O)NO)cc2)c2cc(F)ccc2n1CCN1CCC(F)CC1` [Compound 590, 4-((5-Fluoro-1-(2-(4-fluoropiperidin-1-yl)ethyl)-2-methyl-1H-indol-3-yl)methyl)-N-hydroxybenzamide], for which the IC50 in assay [1] worked out at 6120 nM; in assay [2], 49 nM.
As to `Cc1c(Cc2ccc(C(=O)NO)cc2)c2ccccc2n1CCN1CCC(CF)C1` (centres unmarked) [Compound 591, 4-((1-(2-(3-(Fluoromethyl)pyrrolidin-1-yl)ethyl)-2-methyl-1H-indol-3-yl)methyl)-N-hydroxybenzamide], the half-maximal inhibitory concentration (IC50) in assay [1] came to 6610 nM; in assay [2], 31 nM.
For `Cc1c(Cc2ccc(C(=O)NO)cc2)c2ccccc2n1CCN1CC[C@H](O)C1` [Compound 592, (S)—N-hydroxy-4-((1-(2-(3-hydroxypyrrolidin-1-yl)ethyl)-2-methyl-1H-indol-3-yl)methyl)benzamide], the IC50 in assay [1] stood at 4950 nM; in assay [2], 16 nM.
Take `Cc1c(Cc2ccc(C(=O)NO)cc2)c2ccccc2n1CCN1CC[C@H](F)C1` [Compound 593, (S)-4-((1-(2-(3-fluoropyrrolidin-1-yl)ethyl)-2-methyl-1H-indol-3-yl)methyl)-N-hydroxybenzamide]: the IC50 in assay [1] was 7140 nM; in assay [2], 32 nM.
`Cc1c(Cc2ccc(C(=O)NO)cc2)c2ccccc2n1CCN1CCCC(CO)C1` (centres unmarked) [Compound 594, N-hydroxy-4-((1-(2-(3-(hydroxymethyl)piperidin-1-yl)ethyl)-2-methyl-1H-indol-3-yl)methyl)benzamide]: the figures for the IC50 in assay [1] and in assay [2] were 3140 nM and 17 nM, respectively.
Regarding `CCCc1c(Cc2ccc(C(=O)NO)cc2)c2ccccc2n1CC1CCN(CC(C)(C)O)CC1` [Compound 601, N-hydroxy-4-((1-((1-(2-hydroxy-2-methylpropyl)piperidin-4-yl)methyl)-2-propyl-1H-indol-3-yl)methyl)benzamide], the IC50 in assay [1] came out at 5600 nM; in assay [2] it was 98 nM.
`CCCc1c(Cc2ccc(C(=O)NO)cc2)c2ccccc2n1CC1CCN(CC(C)(C)F)CC1` [Compound 602, 4-((1-((1-(2-fluoro-2-methylpropyl)piperidin-4-yl)methyl)-2-propyl-1H-indol-3-yl)methyl)-N-hydroxybenzamide]: the IC50 in assay [1] was above 10000 nM; in assay [2], 300 nM.
For `Cc1c(Cc2ccc(C(=O)NO)cc2)c2ccccc2n1CC1CCN(Cc2cccc(-c3nccs3)c2)CC1` [Compound 603, N-hydroxy-4-((2-methyl-1-((1-(3-(thiazol-2-yl)benzyl)piperidin-4-yl)methyl)-1H-indol-3-yl)methyl)benzamide], the figures for the 50% inhibitory concentration (IC50) in assay [1] and in assay [2] were above 10000 nM and 206 nM, respectively.
`Cc1c(Cc2ccc(C(=O)NO)cc2)c2ccccc2n1CC1CCN(CC(C)(C)O)CC1` [Compound 608, N-hydroxy-4-((1-((1-(2-hydroxy-2-methylpropyl)piperidin-4-yl)methyl)-2-methyl-1H-indol-3-yl)methyl)benzamide]: the half-maximal inhibitory concentration (IC50) in assay [1] was 1070 nM; in assay [2], 7 nM.
`Cc1c(Cc2ccc(C(=O)NO)cc2)c2ccccc2n1CC1CCN(CC2(F)COC2)CC1` [Compound 609, 4-((1-((1-((3-Fluorooxetan-3-yl)methyl)piperidin-4-yl)methyl)-2-methyl-1H-indol-3-yl)methyl)-N-hydroxybenzamide]: the IC50 was 3630 nM in assay [1] and 5 nM in assay [2].

The values above are taken from US20160355475A1, “NOVEL INDOLE DERIVATIVE COMPOUND AND PHARMACEUTICAL COMPOSITION COMPRISING THE SAME” (CHONG KUN DANG PHARMACEUTICAL CORP., priority 2014, published 2016).
